Here are results for 3 molecules from patent publication US7285528B2, “Agonists and antagonists of gonadotropin-releasing hormone-2, and use thereof” (priority 2002, dated 2007).

Where a SMILES comes first, the peptide text is derived from it. [ ]: non-standard residue; d: D form. pGlu = O=C1CC[C@@H](C(=O)O)N1

Test [1] relates to bfGnRHR-3. Description: Ligand-receptor binding assay, I125-GnRH-2 competition, membranes of GH3 cells expressing bfGnRHR-3. On the set-up: species or system bullfrog. The note with it: log of IC50 (negative values); competition with I125-GnRH-2, 4° C., 16 hours. On the procedure: To determine the binding affinity between GnRH and GnRH receptors, GnRH-2 was radiolabeled with I^125. The GH3 cells expressing bfGnRHR-1, bfGnRHR-2, bfGnRHR-3, and rat GnRHR constructed in Example 2-3 above were cultured on 100-mm dishes. After 48 hours, the cells were homogenized to obtain cellular membranes, which were then dissolved in binding buffer (40 mM Tris, pH 7.4, 2 mM MgCl2). 20 μg of membrane proteins were reacted with I^125-GnRH-2 at 4° C. for 16 hours. […] After the reaction was completed, 1^125-GnRH-2 bound to the receptors was filtered using a Brandel harvester, and cpm was measured using a γ-counter.
The GH3 cells expressing bfGnRHR-3 obtained from Example 6-1 above were treated with l^125GnRH-2 and GnRH-2 agonists and antagonists at various concentrations to determine the binding affinity of GnRH-2 agonists and antagonists toward the receptors.

The test system of test [2] is bfGnRHR-2. The experiment in a line: Inositol phosphate (IP) production, GH3 cells expressing bfGnRHR-2. The class given is cell-based, bullfrog. Conditions: log of EC50 (negative values), concentration inducing half-maximal stimulation, 30 min. The source says:
(§1) The GnRH receptor, a membrane protein connected with the G protein, activates the G protein when activated by a ligand, and the activated G protein activates phospholipase C and thereby the synthesis of inositol phosphate (IP), which is the second transmitter in cells, is increased. Based on this principle, the activity of a receptor can be investigated by measuring the amount of IP within cells. GH3 cell lines were obtained from the Cell Line Bank at the Cancer Research Center, Seoul National University College of Medicine, located in Seoul, Republic of Korea. The GH3 cell lines were infected with retroviruses comprising genes encoding […]-2, and bfGnRHR-3 which are bullfrog GnRH receptors, and rat GnRHR, and cell lines expressing each of these receptors were obtained. The GH3 cells expressing […]-3, and rat GnRHR were cultured on 12-well plates. After 24 hours, the cells were cultured again for 24 hours in a media containing no inositol, to which H^3-myoinositol was added. […] Thereafter, they were treated with GnRH having a suitable concentration, cultured at 37° C. for another 30 minutes, and then the media was eliminated. The cells were treated with 10 mM of ice-cold formic acid to terminate the reaction, and the cell extracts were mixed with Dowex anionic exchange resins. These resins were washed with distilled water, IP was extracted with 1 M ammonium formate/0.1 M formic acid, and cpm (count per minute) was determined. The GH3 cell lines were infected with retroviruses comprising genes encoding […]-2, and bfGnRHR-3 which are bullfrog GnRH receptors, and rat GnRHR, and cell lines expressing each of these receptors were obtained. […] In all the cell lines it was observed that when they were treated with GnRH and the agonists, IP was formed in a concentration-dependent manner.

Test [3] deals with bfGnRHR-3. The experiment in a line: Inositol phosphate (IP) production, GH3 cells expressing bfGnRHR-3. The class given is cell-based, bullfrog. The note with it: log of EC50 (negative values), concentration inducing half-maximal stimulation, 30 min.
From the text: as §1

For test [4], the system named is bfGnRHR-1. Description: Inositol phosphate (IP) production, GH3 cells expressing bfGnRHR-1. Conditions: for Log EC50: log of EC50 (negative values), concentration inducing half-maximal stimulation, 30 min. Type of test: cell-based, bullfrog.
From the text: as §1

The target of test [5] is T1, rat GnRHR (Rattus norvegicus, UniProt P30969).
T1 construct: expressed in transfected cells; host or cells: GH3 cells, retrovirus-mediated infection
T1 sequence (P30969 1-327): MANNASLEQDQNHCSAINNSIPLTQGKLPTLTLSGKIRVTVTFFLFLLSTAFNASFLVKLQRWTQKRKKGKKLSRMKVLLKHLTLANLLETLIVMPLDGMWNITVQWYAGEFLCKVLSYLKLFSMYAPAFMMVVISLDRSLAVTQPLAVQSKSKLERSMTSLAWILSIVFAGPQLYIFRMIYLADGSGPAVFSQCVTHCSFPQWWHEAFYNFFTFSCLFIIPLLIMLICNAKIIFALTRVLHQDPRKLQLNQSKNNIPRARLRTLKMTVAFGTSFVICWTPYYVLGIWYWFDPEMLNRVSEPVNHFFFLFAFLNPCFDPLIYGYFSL
Description: Inositol phosphate (IP) production, GH3 cells expressing rat GnRHR. The class given is cell-based. The note with it: for sensitivity compared with GnRH-1: rat GnRHR. An excerpt: The GnRH receptor, a membrane protein connected with the G protein, activates the G protein when activated by a ligand, and the activated G protein activates phospholipase C and thereby the synthesis of inositol phosphate (IP), which is the second transmitter in cells, is increased. Based on this principle, the activity of a receptor can be investigated by measuring the amount of IP within cells. GH3 cell lines were obtained from the Cell Line Bank at the Cancer Research Center, Seoul National University College of Medicine, located in Seoul, Republic of Korea. The GH3 cell lines were infected with retroviruses comprising genes encoding […]-2, and bfGnRHR-3 which are bullfrog GnRH receptors, and rat GnRHR, and cell lines expressing each of these receptors were obtained. The GH3 cells expressing […]-3, and rat GnRHR were cultured on 12-well plates. After 24 hours, the cells were cultured again for 24 hours in a media containing no inositol, to which H^3-myoinositol was added. […] Thereafter, they were treated with GnRH having a suitable concentration, cultured at 37° C. for another 30 minutes, and then the media was eliminated. The cells were treated with 10 mM of ice-cold formic acid to terminate the reaction, and the cell extracts were mixed with Dowex anionic exchange resins. These resins were washed with distilled water, IP was extracted with 1 M ammonium formate/0.1 M formic acid, and cpm (count per minute) was determined. The GH3 cell lines were infected with retroviruses comprising genes encoding […]-2, and bfGnRHR-3 which are bullfrog GnRH receptors, and rat GnRHR, and cell lines expressing each of these receptors were obtained.

Test [6] deals with Primate GnRH-2 receptor. Description: c-fos-luc luciferase activation by agonists, CV-1 cells expressing Primate GnRH-2 receptor. Type of test: cell-based, Primates. Conditions: luciferase activation; for Log EC50: log of EC50 (negative values); for Log EC50 / Emax (fold-induction): average of three independent experiments; for Ratio of EC50 values based on EC50 value of GnRH-2: GnRH-2 = 1. The protocol:
Complimentary DNA (cDNA) for a Primate GnRH-2 receptor was obtained from a CV-1 cell genome. […] Plasmids having Primate GnRH-2 receptors where transfected into CV-1 cells. To assay the activity of the receptor, c-fos-luc where a luciferase gene is fused with a c-fos promoter was co-transfected as a probe gene. After 48 hours from transfection, the cells were treated with GnRH-2 agonists and then the activity of luciferase was assayed (Seong et al., Endocrinology vol 144 2003, 454-466). […] Of the GnRH-2 receptors, [[…]]GnRH-2 performed excellently, showing effects about 3 times that of a wild-type ligand, GnRH-2. […] When analogs where the 5th, 7th, and 8th amino acids of [[…]]GnRH-2 are substituted were used, it was observed that their effects were weaker than [[…]]GnRH-2, and therefore it can be seen that it is important to maintain His, Trp, and Tyr that are found at the 5th, 7th, and 8th positions of GnRH-2 as they are (FIG. 3b). Log EC50 values and Emax values of GnRH-2 agonists are average values of experiments that were conducted independently three times. Ratio^a represents the ratio of EC50 values of other GnRH analogs based on EC50 values of GnRH-2.

Test [7] deals with luteinizing hormone and testosterone secretion. The experiment in a line: GnRH-2 agonist-induced serum LH and testosterone levels in male rat (radioimmunoassay). The class given is in vivo. The note with it: 10 μg injected. The protocol:
Example 3: GnRH-2 Agonist-induced serum LH and testosterone levels [D-Ala^6]GnRH-2 was dissolved in saline at a concentration of 100 μg/ml, and then 10 μg of [D-Ala^6]GnRH-2 was injected into the cervix of a male rat (Sprague Dawley rat having a weight of approximately 100 g). 1, 2, 4, and 8 hours after the injection, serum was obtained from the rat. The concentration of luteinizing hormone and testosterone present in the serum was measured by radioimmunoassay.

For test [8], the system named is TSU-Pri cells. Description: Binding of radiolabeled GnRH to TSU-Pri prostate cancer cells and competition. On the set-up: species or system human. Conditions: for reduction of radiolabeled GnRH-2 binding to TSU-Pri cells by unradiolabeled competitor: unradiolabeled peptide as competitor. The protocol:
The radiolabeled GnRH and the cells were cultured at room temperature for 6 hours, and then washed with PBS (phosphate-buffered saline) several times to eliminate the unbound GnRH. Thereafter, the cells were isolated and radioactivity from the cells was measured using a γ-counter.

The mark [9] stands for this setting: cells expressing rat GnRH receptor.

For the molecule `C[C@@H](NC(=O)[C@H](Cc1c[nH]cn1)NC(=O)[C@H](CO)NC(=O)[C@H](Cc1c[nH]c2ccccc12)NC(=O)[C@H](Cc1c[nH]cn1)NC(=O)[C@@H]1CCC(=O)N1)C(=O)N[C@@H](Cc1c[nH]c2ccccc12)C(=O)N[C@@H](Cc1ccc(O)cc1)C(=O)N1CCC[C@H]1C(=O)NCC(N)=O` [[D-Ala^6]GnRH-2, p-Glu-His-Trp-Ser-His-D-Ala-Trp-Tyr-Pro-GlyNH2] ([pGlu]HWSH[dA]WYPG-NH2), in test [1], the “Binding affinity (log IC50 value)” value is on record as −9.83 ± 0.14. In test [2], the “Log EC50” value was −9.91 ± 0.19. For the same molecule, the “Log EC50” value in test [3] was −9.89 ± 0.10. In test [4], the “fold lower activating concentration than GnRH-2” value is listed as about 8 fold and the “Log EC50” value was −9.91 ± 0.13. For the same molecule, in test [5] (setting [9]), the “fold higher sensitivity than GnRH-2” value stood at 5 fold and the “fold lower sensitivity than GnRH-1” value is on record as 3.5 fold. For the same molecule, the “sensitivity compared with GnRH-1” value in test [5] is reported as “a sensitivity lower than 10-fold”. Also, in test [6], the “Log EC50” value is recorded as −8.81 ± 0.12, the “Ratio of EC50 values based on EC50 value of GnRH-2” value (shortened to “Ratio of EC50 values based”) is listed as 0.38 and the “Emax (fold-induction)” value was 11.84 ± 0.47 fold-induction. The “serum luteinizing hormone (LH)” value in test [7] (male Sprague Dawley rat about 100 g, serum 1, 2, 4, 8 hours) is on record as “an increase of luteinizing hormone (LH) was observed in only one hour”. For the same molecule, the “time of serum testosterone peak after injection” value in test [7] (male rat) was 4 h. Moreover, the serum testosterone result in test [7] (male rat, compared with before the injection) is listed as “significantly high value even after 8 hours”. Also, the “reduction of radiolabeled GnRH-2 binding to TSU-Pri cells by unradiolabeled competitor” value in test [8] is “reduced in a concentration-dependent manner”.
For the molecule `NC(=O)CNC(=O)[C@@H]1CCCN1C(=O)[C@H](Cc1ccc(O)cc1)NC(=O)[C@H](Cc1c[nH]c2ccccc12)NC(=O)[C@@H](Cc1c[nH]c2ccccc12)NC(=O)[C@H](Cc1c[nH]cn1)NC(=O)[C@H](CO)NC(=O)[C@H](Cc1c[nH]c2ccccc12)NC(=O)[C@H](Cc1c[nH]cn1)NC(=O)[C@@H]1CCC(=O)N1` [[D-Trp^6]GnRH-2] ([pGlu]HWSH[dW]WYPG-NH2), the “Binding affinity (log IC50 value)” value in test [1] was −8.10 ± 0.11. Besides, the “Log EC50” value in test [2] was −9.21 ± 0.13. Also, the “Log EC50” value in test [3] was −9.22 ± 0.11. Besides, the “Log EC50” value in test [4] is −9.40 ± 0.12. In test [6], the “Log EC50” value is given as −8.31 ± 0.09, the “fold lower effect than GnRH-2” value is reported as about 1.2 fold, the “Ratio of EC50 values based” value is recorded as 1.20 and the “Emax (fold-induction)” value was found to be 11.20 ± 0.32 fold-induction.
In the case of `NC(=O)CNC(=O)[C@@H]1CCCN1C(=O)[C@H](Cc1ccc(O)cc1)NC(=O)[C@H](Cc1c[nH]c2ccccc12)NC(=O)CNC(=O)[C@H](Cc1c[nH]cn1)NC(=O)[C@H](CO)NC(=O)[C@H](Cc1c[nH]c2ccccc12)NC(=O)[C@H](Cc1c[nH]cn1)NC(=O)[C@@H]1CCC(=O)N1` [GnRH-2] ([pGlu]HWSHGWYPG-NH2), the “Binding affinity (log IC50 value)” value in test [1] is recorded as −8.63 ± 0.14. Also, the “Log EC50” value in test [2] is reported as −8.98 ± 0.14; in test [3], −9.51 ± 0.10; in test [4] it was −9.41 ± 0.13; in test [6] it was −8.39 ± 0.10. The “sensitivity compared with GnRH-1” value in test [5] was “a sensitivity lower than 10-fold”. Besides, the “Ratio of EC50 values based” value in test [6] came out at 1. Further, the “Emax (fold-induction)” value in test [6] amounted to 11.74 ± 0.31 fold-induction. Moreover, in test [8] (I125-radiolabeled peptide, room temperature, 6 hours), the “binding of radiolabeled ligand to TSU-Pri cells” value is reported as “binding with cells was observed”. Further, the “reduction of radiolabeled GnRH-2 binding to TSU-Pri cells by unradiolabeled competitor” value in test [8] is reported as “the binding was reduced”.
